From patent US20110054193A1, “STATIN PRODUCTION” (priority 2008, published 2011)

Tests used:
[1] = tested on: Penicillium chrysogenum ΔhdfAΔ Pc18g05230; test: Compactin sensitivity of Penicillium chrysogenum strains, growth in liquid media; type: cell-based; conditions: mutant for Pc18g05230 (SEQ ID NO 1); liquid media with different amounts of compactin; 2 days of growth at 25 C
Protocol: (§1) Fungal growth was performed in a mineral medium, containing (g/L): glucose (5); lactose (35); urea (4.5); (NH4)2SO4 (1.1); Na2SO4 (2.9); KH2PO4 (5.2); K2HPO4 (4.8) and 10 mL/L of a trace element solution containing (in g/l): citric acid (150); FeSO4.7H2O (15); MgSO4.7H2O (150); H3BO3 (0.0075); CuSO4.5H2O (0.24); CoSO4.7H2O (0.375); ZnSO4.7H2O (5); MnSO4.H2O (2.28); CaCl2.2H2O (0.99); pH before sterilization 6.5. Oxoid agar was added at 15 g/l to solidify the medium.
(§2) Compactin was maintained as a stock solution at 20 g/L in ethanol at −20 C.
The gene Pc18g05230 was identified as a HMGR encoding gene. In order to prevent the transcription of this gene a selection marker gene was inserted between the promoter and the open reading frame (ORF). To this end the promoter and the ORF were PCR amplified using the oligonucleotides SEQ ID NO 5 plus 6 and SEQ ID NO 7 plus 8, respectively (see FIG. 1). Phusion Hot-Start Polymerase (Finnzymes) was used to amplify the fragments. The fragments obtained are 1539 and 2514 base pairs (bp) in length (SEQ ID NO 31 and SEQ ID NO 32) and contain a 14 bp tail suitable for the so-called STABY cloning method (Eurogentec). From the standard STABY vector, pSTC1.3, two derivatives were obtained. One, pSTamdSL (SEQ ID NO 39), was used for cloning the PCR amplified promoter (SEQ ID NO 31). […]

[2] = tested on: Penicillium chrysogenum ΔhdfAΔ Pc16g05060; test: as above; type: cell-based; conditions: mutant for Pc16g05060 (SEQ ID NO 9); liquid media with different amounts of compactin; 2 days of growth at 25 C
Protocol: as §1, §2
The gene Pc16g05060 was identified as a HMGR encoding gene. In order to prevent the transcription of this gene a selection marker gene was inserted between the promoter and the open reading frame (ORF). To this end the promoter and the ORF were PCR amplified using the oligonucleotides SEQ ID NO 13 plus 14 and SEQ ID NO 15 plus 16, respectively (see FIG. 1). Phusion Hot-Start Polymerase (Finnzymes) was used to amplify the fragments. The fragments obtained are 1539 and 1514 base pairs (bp) in length (SEQ ID NO 35 and SEQ ID NO 36) and contain a 14 bp tail suitable for the so-called STABY cloning method (Eurogentec).
Spores of the Penicillium chrysogenum mutants for both HMGR encoding genes, Pc18g05230 (SEQ ID NO 1) and Pc16g05060 (SEQ ID NO 9), were inoculated in liquid media with different amounts of compactin.

## CC[C@H](C)C(=O)O[C@H]1CCC=C2C=C[C@H](C)[C@H](CC[C@@H]3C[C@@H](O)CC(=O)O3)[C@H]21 [Compactin, compactin]
[1]
  compactin sensitivity of the mutant, in words: increased compactin sensitivity
[2]
  compactin sensitivity of the mutant, in words: increased compactin sensitivity
